In this assay the target is T1, PIK3CA (Homo sapiens, UniProt P42336).
T1 construct: endogenous in cells; host or cells: Jurkat cell lysate
T1 sequence (P42336 whole entry): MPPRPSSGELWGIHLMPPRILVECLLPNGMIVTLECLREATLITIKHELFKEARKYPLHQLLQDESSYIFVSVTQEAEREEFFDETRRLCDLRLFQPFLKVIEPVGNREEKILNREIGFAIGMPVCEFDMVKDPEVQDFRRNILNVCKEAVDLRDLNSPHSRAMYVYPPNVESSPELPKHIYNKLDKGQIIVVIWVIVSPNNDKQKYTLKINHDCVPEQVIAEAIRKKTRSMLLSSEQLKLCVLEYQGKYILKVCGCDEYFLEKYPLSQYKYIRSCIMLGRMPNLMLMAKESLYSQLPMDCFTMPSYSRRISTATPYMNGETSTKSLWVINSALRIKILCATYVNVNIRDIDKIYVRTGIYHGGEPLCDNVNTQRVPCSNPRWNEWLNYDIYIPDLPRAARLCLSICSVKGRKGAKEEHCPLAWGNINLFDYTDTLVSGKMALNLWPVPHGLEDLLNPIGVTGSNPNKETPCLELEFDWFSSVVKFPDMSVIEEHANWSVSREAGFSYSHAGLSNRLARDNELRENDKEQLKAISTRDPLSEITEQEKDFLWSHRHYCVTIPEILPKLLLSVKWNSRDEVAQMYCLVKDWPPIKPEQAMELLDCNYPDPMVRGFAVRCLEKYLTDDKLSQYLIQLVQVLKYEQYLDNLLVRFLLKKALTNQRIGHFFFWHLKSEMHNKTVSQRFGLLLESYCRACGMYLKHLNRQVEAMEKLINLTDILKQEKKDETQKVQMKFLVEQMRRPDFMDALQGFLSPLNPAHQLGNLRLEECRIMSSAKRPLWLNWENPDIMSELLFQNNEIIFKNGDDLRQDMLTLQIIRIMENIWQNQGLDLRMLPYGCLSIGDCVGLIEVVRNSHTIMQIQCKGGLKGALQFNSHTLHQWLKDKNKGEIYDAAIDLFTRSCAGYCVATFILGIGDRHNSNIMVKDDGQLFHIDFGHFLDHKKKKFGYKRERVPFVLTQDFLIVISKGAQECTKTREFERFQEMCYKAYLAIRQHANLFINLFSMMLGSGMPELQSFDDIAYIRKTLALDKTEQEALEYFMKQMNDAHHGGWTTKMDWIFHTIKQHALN
T1 sequence (P27986 whole entry partner): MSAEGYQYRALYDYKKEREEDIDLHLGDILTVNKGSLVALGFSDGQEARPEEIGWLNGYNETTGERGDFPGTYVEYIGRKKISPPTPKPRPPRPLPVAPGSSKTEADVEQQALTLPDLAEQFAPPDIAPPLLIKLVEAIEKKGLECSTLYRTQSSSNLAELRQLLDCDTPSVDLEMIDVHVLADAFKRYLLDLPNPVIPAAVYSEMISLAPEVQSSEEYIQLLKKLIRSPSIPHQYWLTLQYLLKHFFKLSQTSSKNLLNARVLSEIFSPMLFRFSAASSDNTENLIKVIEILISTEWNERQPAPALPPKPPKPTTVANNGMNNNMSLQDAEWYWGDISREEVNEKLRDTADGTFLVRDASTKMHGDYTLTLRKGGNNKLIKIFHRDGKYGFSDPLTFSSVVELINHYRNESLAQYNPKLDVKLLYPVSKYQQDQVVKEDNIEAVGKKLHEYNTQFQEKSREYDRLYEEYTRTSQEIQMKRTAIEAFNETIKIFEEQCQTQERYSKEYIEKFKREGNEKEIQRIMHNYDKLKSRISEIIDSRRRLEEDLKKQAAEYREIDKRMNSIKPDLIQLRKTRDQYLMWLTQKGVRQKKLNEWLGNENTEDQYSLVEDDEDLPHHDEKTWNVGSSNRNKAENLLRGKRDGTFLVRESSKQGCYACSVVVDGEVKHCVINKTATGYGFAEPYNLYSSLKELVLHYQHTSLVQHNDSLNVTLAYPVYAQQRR
In words: In vitro ELISA target engagement assay for PIK3CA in Jurkat cellular lysate (competition with PIK3CA Biotin Probe). It is filed as binding. The following applies: 1 hour at rt, then 500 nM PIK3CA Biotin Probe, read-out: Elisa Target Engagement Assay (TE50). The protocol: Example 3. In Vitro ELISA Target Engagement Assay for […] Engagement of compounds on PIK3CA were assessed in Jurkat cellular lysate via a sandwich ELISA. A solution of PIK3CA Biotin Probe was generated at 10 mM and used in the biological testing. […] Treatment Protocol: Jurkat cellular lysate was generated from frozen cell pellets. Cells were thawed on ice and resuspended in cold Dulbecco's phosphate buffered saline (DPBS) (12 mL/300 e^6 cells) then lysed by probe sonication (12×3 second pulses). Jurkat lysate was plated (50 μl/well) in Armadillo 96 well PCR plates (Thermo Fisher catalog number AB2396). The lysate was treated with serial dilutions of test compounds up to 200 μM and incubated for 1 hour at rt. Following compound incubation, PIK3CA Biotin Probe was added to a final concentration of 500 nM, and lysate was mixed by pipetting gently and incubated for an additional 1 hour at rt. The mixture was then diluted in 75 μL Dilution buffer. The mixture was centrifuged for 5 minutes at 4122 g and stored at −80° C. until ELISA TE detection. ELISA TE Detection: Quantification of PIK3CA TE was initiated by coating of the ELISA plate (Thermo Scientific White 384-Well Immuno plates; Thermo Fisher catalog number 460372). The capture antibody was diluted in plating buffer (1:83) and added to the ELISA plate, 20 μl/well, overnight at 4° C. The plate was then washed twice with PBST, 100 μl/well, and blocked with addition of blocking buffer (100 μl/well, 1 hour at rt). During block, treated and probe labeled lysate was thawed. After Block, the block buffer was removed and the thawed lysate was added to the ELISA plate, 30 μl/well, for 1.5 hours at rt. Following lysate incubation, the assay plate was washed 3 times with PBST, 100 μl/well. The Neutravidin-HRP was then diluted (1:500 in dilution buffer) and added for 1 hour at rt, 20 μl/well. Following incubation, the assay plate was washed 4 times with PBST, 100 μl/well, HRP substrate was added to plate, 20 μl/well and luminescence signal was read (Clariostar Plate Reader). For each compound the potency of target engagement (TE50) was determined using Graphpad Prism.
Background: ELISA stands for enzyme-linked immunosorbent assay.
For `C[C@H](/C=C\S(C)(=O)=O)NC(=O)C1(F)CCN(S(=O)(=O)c2ccc(Br)cc2-c2cc(F)ccc2Cl)CC1` [Compound 48, (R,Z)-1-((5-bromo-2′-chloro-5′-fluoro-[1,1′-biphenyl]-2-yl)sulfonyl)-4-fluoro-N-(4-(methylsulfonyl)but-3-en-2-yl)piperidine-4-carboxamide], the IC50 was 481 nM.
On to `O=C(NCC1=CS(=O)(=O)C1)C1(F)CCN(S(=O)(=O)c2ccc(Br)cc2-c2ccccc2Cl)CC1` [Compound 233, 1-((5-bromo-2′-chloro-[1,1′-biphenyl]-2-yl)sulfonyl)-N-((1,1-dioxido-2H-thiet-3-yl)methyl)-4-fluoropiperidine-4-carboxamide], for which the IC50 amounted to 290 nM.
As for `C[C@H](/C=C\S(C)(=O)=O)NC(=O)[C@]1(F)CCN(S(=O)(=O)c2ccc(C#N)cc2-c2ccccc2Cl)[C@H](C)C1` [Compound 144, (2R,4S)-1-((2′-chloro-5-cyano-[1,1′-biphenyl]-2-yl)sulfonyl)-4-fluoro-2-methyl-N-((R,Z)-4-(methylsulfonyl)but-3-en-2-yl)piperidine-4-carboxamide], the IC50 was 55 nM.
In the case of `Cc1ccccc1-c1cc(Br)ccc1S(=O)(=O)N1CCC(F)(C(=O)N[C@H](C)/C=C\S(C)(=O)=O)CC1` [Compound 49, (R,Z)-1-((5-bromo-2′-methyl-[1,1′-biphenyl]-2-yl)sulfonyl)-4-fluoro-N-(4-(methylsulfonyl)but-3-en-2-yl)piperidine-4-carboxamide], the IC50 is 125 nM.
As for `C[C@H](/C=C\S(C)(=O)=O)NC(=O)C1(F)CCN(C(=O)[C@H]2CCN(C(=O)OC(C)(C)C)C[C@H]2c2ccccc2Cl)CC1` (relative stereo) [Compound 259, tert-butyl (3*R,4*S)-3-(2-chlorophenyl)-4-(4-fluoro-4-(((R,Z)-4-(methylsulfonyl)but-3-en-2-yl)carbamoyl)piperidine-1-carbonyl)piperidine-1-carboxylate], the IC50 is 660 nM.
Regarding `C[C@H](/C=C\S(C)(=O)=O)NC(=O)C1(F)CCN(S(=O)(=O)c2ccc(Cl)cc2-c2ccccc2Cl)CC1` [Compound 23, (R,Z)-1-((2′,5-dichloro-[1,1′-biphenyl]-2-yl)sulfonyl)-4-fluoro-N-(4-(methylsulfonyl)but-3-en-2-yl)piperidine-4-carboxamide], the IC50 was 91 nM.
Turning to `CCc1ccccc1-c1cc(Br)ccc1S(=O)(=O)N1CCC(F)(C(=O)N[C@H](C)/C=C\S(C)(=O)=O)CC1` [Compound 51, (R,Z)-1-((5-bromo-2′-ethyl-[1,1′-biphenyl]-2-yl)sulfonyl)-4-fluoro-N-(4-(methylsulfonyl)but-3-en-2-yl)piperidine-4-carboxamide], the IC50 came to 550 nM.
Next, `C[C@@H](C#CC(=O)N(C)C)NC(=O)C1(F)CCN(S(=O)(=O)c2ccc(Br)cc2-c2ccccc2Cl)CC1` [Compound 281, (S)-1-((5-bromo-2′-chloro-[1,1′-biphenyl]-2-yl)sulfonyl)-N-(5-(dimethylamino)-5-oxopent-3-yn-2-yl)-4-fluoropiperidine-4-carboxamide]: 160 nM; `CCC(F)(F)CN1C[C@H](C(=O)N2CCC(F)(C(=O)N[C@H](C)/C=C\S(C)(=O)=O)CC2)[C@H](c2ccccc2Cl)C1` [Compound 178, 1-((3R,4R)-4-(2-chlorophenyl)-1-(2,2-difluorobutyl)pyrrolidine-3-carbonyl)-4-fluoro-N-((R,Z)-4-(methylsulfonyl)but-3-en-2-yl)piperidine-4-carboxamide]: 540 nM; `Cc1cccc(-c2cc(Br)ccc2S(=O)(=O)N2CCC(F)(C(=O)N[C@H](C)/C=C\S(C)(=O)=O)CC2)c1Cl` [Compound 59, (R,Z)-1-((5-bromo-2′-chloro-3′-methyl-[1,1′-biphenyl]-2-yl)sulfonyl)-4-fluoro-N-(4-(methylsulfonyl)but-3-en-2-yl)piperidine-4-carboxamide]: 710 nM.
Next, `O=C(N[C@@H]1C=CS(=O)(=O)C1)C1(F)CCN(S(=O)(=O)c2ccc(Br)cc2-c2ccccc2Cl)CC1` [Compound 66, (R)-1-((5-bromo-2′-chloro-[1,1′-biphenyl]-2-yl)sulfonyl)-N-(1,1-dioxido-2,3-dihydrothiophen-3-yl)-4-fluoropiperidine-4-carboxamide]: 37.9 nM; `CS(=O)(=O)/C=C/CNC(=O)C1(F)CCN(S(=O)(=O)c2ccc(Br)cc2-c2ccccc2Cl)CC1` [Compound 64, (E)-1-((5-bromo-2′-chloro-[1,1′-biphenyl]-2-yl)sulfonyl)-4-fluoro-N-(3-(methylsulfonyl)allyl)piperidine-4-carboxamide]: 75 nM.
The same measure for `C[C@H](C#CC(=O)N(C)C)NC(=O)C1(F)CCN(S(=O)(=O)c2ccc(Br)cc2-c2ccccc2Cl)CC1` [Compound 280, (R)-1-((5-bromo-2′-chloro-[1,1′-biphenyl]-2-yl)sulfonyl)-N-(5-(dimethylamino)-5-oxopent-3-yn-2-yl)-4-fluoropiperidine-4-carboxamide]: 150 nM; for `C[C@H](/C=C/C(=O)N1CC(F)(F)C1)NC(=O)[C@]1(F)CCN(S(=O)(=O)c2ccc(C(F)(F)F)cc2-c2ccccc2Cl)[C@H](C)C1` [Compound 152, (2R,4S)-1-((2′-chloro-5-(trifluoromethyl)-[1,1′-biphenyl]-2-yl)sulfonyl)-N-((R,E)-5-(3,3-difluoroazetidin-1-yl)-5-oxopent-3-en-2-yl)-4-fluoro-2-methylpiperidine-4-carboxamide]: 450 nM.
For `COc1ccc(S(=O)(=O)N2CCC[C@@](F)(C(=O)N[C@H](C)/C=C\S(C)(=O)=O)CC2)c(-c2ccccc2Cl)c1` [Compound 313, (S)-1-((2′-chloro-5-methoxy-[1,1′-biphenyl]-2-yl)sulfonyl)-4-fluoro-N-((R,Z)-4-(methylsulfonyl)but-3-en-2-yl)azepane-4-carboxamide], the IC50 stood at 530 nM.
As to `C[C@H](/C=C\S(C)(=O)=O)NC(=O)C1(F)CCN(S(=O)(=O)c2ccc(CCO)cc2-c2ccccc2Cl)CC1` [Compound 128, (R,Z)-1-((2′-chloro-5-(2-hydroxyethyl)-[1,1′-biphenyl]-2-yl)sulfonyl)-4-fluoro-N-(4-(methylsulfonyl)but-3-en-2-yl)piperidine-4-carboxamide], the IC50 came out at 280 nM.
As to `COc1ccc(S(=O)(=O)N2CC[C@](F)(C(=O)N[C@H](C)/C=C\S(C)(=O)=O)CC2(C)C)c(-c2ccccc2Cl)c1` (single isomer, unassigned) [Compound 150, (*R)-1-((2′-chloro-5-methoxy-[1,1′-biphenyl]-2-yl)sulfonyl)-4-fluoro-2,2-dimethyl-N-((R,Z)-4-(methylsulfonyl)but-3-en-2-yl)piperidine-4-carboxamide], the IC50 came to 310 nM.
The same measure for `CS(=O)(=O)C=C1CN(C(=O)C2(F)CCN(S(=O)(=O)c3ccc(Br)cc3-c3ccccc3Cl)CC2)C1` [Compound 273, (1-((5-bromo-2′-chloro-[1,1′-biphenyl]-2-yl)sulfonyl)-4-fluoropiperidin-4-yl)(3-((methylsulfonyl)methylene)azetidin-1-yl)methanone]: 830 nM.
The same measure for `CC[C@@H](/C=C/S(=O)(=O)C1CNC1)NC(=O)C1(F)CCN(S(=O)(=O)c2ccc(Br)cc2-c2ccccc2Cl)CC1` [Compound 78, (S,E)-N-(1-(azetidin-3-ylsulfonyl)pent-1-en-3-yl)-1-((5-bromo-2′-chloro-[1,1′-biphenyl]-2-yl)sulfonyl)-4-fluoropiperidine-4-carboxamide]: 461 nM; for `O=C(N[C@H]1C=CS(=O)(=O)C1)C1(F)CCN(S(=O)(=O)c2ccc(Br)cc2-c2ccccc2Cl)CC1` [Compound 67, (S)-1-((5-bromo-2′-chloro-[1,1′-biphenyl]-2-yl)sulfonyl)-N-(1,1-dioxido-2,3-dihydrothiophen-3-yl)-4-fluoropiperidine-4-carboxamide]: 95.6 nM.
Next, `COC1(C(=O)N[C@H](C)/C=C\S(C)(=O)=O)CCN(S(=O)(=O)c2ccc(C(F)(F)F)cc2-c2ccccc2Cl)CC1` [Compound 139, (R,Z)-1-((2′-chloro-5-(trifluoromethyl)-[1,1′-biphenyl]-2-yl)sulfonyl)-4-methoxy-N-(4-(methylsulfonyl)but-3-en-2-yl)piperidine-4-carboxamide]: 330 nM; `C[C@H](/C=C\S(C)(=O)=O)NC(=O)C1(F)CCN(S(=O)(=O)c2cc3sccc3cc2-c2ccccc2Cl)CC1` [Compound 157, (R,Z)-1-((5-(2-chlorophenyl)benzo [b]thiophen-6-yl)sulfonyl)-4-fluoro-N-(4-(methylsulfonyl)but-3-en-2-yl)piperidine-4-carboxamide]: 200 nM.
